# Tests used:
# A/WY/03/2003 = assay type: cell-based, influenza A virus in MDCK cells
# [1] = test system: influenza virus strain A/Wyoming/03/2003 (H3N2); assay type: cell-based, influenza A virus in MDCK cells
# [2] = test system: A/WY/03/2003 (H3N2) influenza virus; assay type: cell-based, influenza A virus in MDCK cells
# influenza virus = assay type: cell-based, influenza virus in MDCK cells
structure (smiles),measurement,setting,value
"CCOC(=O)C([C@H]1C=C[C@@H](O)C1)[N+](=O)[O-] (stereo partly drawn) [EHCN, ethyl-(2R/S, 1′R,4′S)-2-(4′-hydroxy-2′-cyclopenten-1′-yl)-2-nitroacetate]",EC50 against A/WY/03/2003,A/WY/03/2003,4.5 mg/L
same,cytopathic effect (CPE) observed under the microscope,[1],did not present complete CPE
same,protection (cell viability assay),[2],75%
same,plaque formation / antiviral activity in plaque reduction assay,influenza virus,fewer and smaller plaques than the untreated wells

# Source: patent US8318804B2 (priority 2007, dated 2012)
